Measurements from patent publication US20260078346A1, “Cell Tissue Production Method, Application Method and Application Device” (NTN Corporation, priority 2022, published 2026).

How the values were obtained:
[1] = test system: application tissue (myocardial tissue of iPS cardiomyocytes and normal human cardiac fibroblasts); assay: Ca2+ transient waveform change on addition of isoproterenol, application tissue; format: cell-based; details: increasing isoproterenol concentration (nM)
Experimental: (§1) After a myocardial tissue after being cultured for seven days was dyed, Ca^2+ transient measurement was performed from the viewpoint of checking a function of myocardial contraction. The measurement was performed for a myocardial tissue after culture (hereinafter described as “application tissue”) illustrated in FIG. 29 in this example and a planarly cultured tissue (hereinafter described as “2D tissue”) serving as a comparative example. In the myocardial tissue in the comparative example, iPS cardiomyocytes (iCell Cardiomyocyte 2) and normal human cardiac fibroblast were set to 4:1 in a number ratio. In the myocardial tissue in the comparative example, 50000 cells per one well were seeded and planarly cultured in the same culture medium as the culture medium of the application tissue obtained by the same application device as the application device in the second embodiment. A result of the Ca^2+ transient measurement is illustrated in the following Table 1.
(§2) Subsequently, a change in a Ca^2+ transient waveform at the time when isoproterenol that is a β adrenergic receptor agonist was added was evaluated. In general, the isoproterenol raises the heart rate and the contraction force of a cardiomyocyte. The contraction force of the cardiomyocyte has a correlation with the fluorescence intensity (AMP) of the Ca^2+ transient measurement. […]

[2] = test system: 2D tissue (planarly cultured iPS cardiomyocytes and normal human cardiac fibroblasts); assay: Ca2+ transient waveform change on addition of isoproterenol, 2D tissue; format: cell-based; details: increasing isoproterenol concentration (nM)
Experimental: as §1, §2

CC(C)NCC(O)c1ccc(O)c(O)c1 (stereo not shown) [isoproterenol]
change in BPM when isoproterenol is added ([1]; FIG. 31): rose according to an increase in the isoproterenol concentration | change in AMP (fluorescence intensity) when isoproterenol is added ([1]; FIG. 32): rose depending on the concentration of the isoproterenol | change in BPM when isoproterenol is added ([2]; FIG. 31): rose according to an increase in the isoproterenol concentration | change in AMP (fluorescence intensity) when isoproterenol is added ([2]; FIG. 32): did not rise much
